Test results from patent US6624188B1, “Method of treatment with compounds having retinoid-like activity and reduced skin toxicity and lacking teratogenic effects” (Allergan, Inc., priority 1992, dated 2003).
In brackets after ≈: the same amount, converted by molar mass. Where two headings read alike, the source gives them in different places.

How the values were obtained:
gestating ICR mice = assay: in vivo teratology study, single oral dose on day 11 of gestation; set-up: species or system mouse; conditions: female, ICR, mouse, in vivo, 17 day of gestation; for # Litters Normal / Teratogenic Effects % Cleft Palate / Teratogenic Effects % Limb Defects / Teratogenic Effects % Resorbed: po
Experimental: The methodology of the study is described as follows:
ICR mice (Ace Animals, Boyertown, Pa.) were used. Mature male and virgin female ICR mice were housed in environmentally controlled rooms and acclimatized to a 12 hour light/dark cycle (light cycle 6 A.M. to 6 P.M.) for 2 weeks prior to use. All animals were maintained on Purina Lab Chow and tap water ad libitum. A group of 3-4 females was caged with a single male of proven fertility for 4 hours. Presence of a vaginal plug immediately afterward was regarded as evidence of successful mating, and this day was designated as day 0 of gestation.
[…] All animals were killed by cervical dislocation under mild ether anesthesia on day 17 of gestation. Upon laparotomy, the fetuses were examined for external malformations and weighed; one-half of each litter was then fixed in 95% ethanol and processed for staining of the skeleton by the rapid, alizarin red-S dye method. These preparations were examined under a dissection microscope to screen for abnormalities in the axial and the appendicular skeleton. The other half of each litter was fixed in Bouin's solution and examined by freehand razor serial sectioning to screen for anomalies of the brain, face, and palate.
Differences in dose-related incidence of malformations and resorptions were assessed by computing percentages of affected conceptuses among total implantation sites. The groups were compared statistically by a method based on Student's t-tests of arcs in square root transformed percentages. Values at 0.05 probability level were considered significant. The median effective dose was calculated by logarithmic curve fitting of the dose-response data.

[1] = system: limb bud mesenchymal cells; assay: inhibition of chondrogenesis in high-density spot cultures of limb bud mesenchymal cells; assay type: cell-based; conditions: Mus musculus; limb bud mesenchymal cell spot cultures, terminated 96 hours after plating; read-out: IC50 (concentration which inhibited chondrogenesis by 50%)
Description: In an in vitro bioassay which measures inhibition of chondrogenesis (bone formation) in […] as a classic measure of teratogenecity the results shown in Table 2 were obtained. The assay is described as follows:
High-density “spot” cultures of limb bud mesenchymal cells were used to compare the ability of various concentrations of test drugs to suppress chondrogenic differentiation as a bioassay. Forelimb buds of mouse embryos on day 12 of gestation (54±2 somites) were dissociated in a trypsin-EDTA solution, and the resultant single-cell suspension was plated as 20-μl spots (200,000 cells/spot) on plastic culture dishes. Retinoid concentrations ranging from 0.3 ng/ml to 3 μg/ml (1 nM-10 μM) were added to the culture medium (Eagle's MEM+10% fetal bovine serum, GIBCO) 24 hours after initial plating. […]
The cultures were terminated 96 hours after plating, at which time the medium was removed and the cells were fixed for 1 hour in 10% formalin containing 0.5% cetylpyridinium chloride. The cultures were rinsed in acetic acid and stained for 1 hour in 0.5% Alcian blue solution at pH 1.0, differentiated in 3% acetic acid, and then dehydrated in ethanol and scored for chondrogenesis under the microscope. […] The number of cartilage nodules stained in the whole spot, mean number of nodules, and standard deviations were calculated for four replicate cultures per treatment. […]

human sebocyte cultures = assay: human sebocyte culture 3H-thymidine incorporation (DNA synthesis, anti-proliferative effect); assay type: cell-based; conditions: human sebocytes, 8 days treatment, FIG. 2
Description: The retinoid like activity of the compounds used in accordance with the method of treatment of the present invention and of the novel compounds of the invention can be confirmed by several assay procedures. An assay involving human sebocyte cultures measures the inhibition of ^3H-thymidine into cells, and thus measures inhibition of DNA synthesis and thus an anti-proliferative effect on sebocyte (i.e. a sebostatic effect). This assay is also considered a specific assay for effectiveness of a compound as a potential anti-acne drug. The test is conducted as follows.
Face-lift or forehead reduction skins from cosmetic surgeries were used as sources of human sebaceous gland cells (sebocytes).
Isolated sebocytes were plated in type 1 collagen coated-dishes in DMEM/F12 (1:1) medium supplemented with 8% fetal bovine serum, 2% human serum, 10 ng/ml epidermal growth factor, 1 nM cholera toxin, 1 μM hydrocortisone, and penicillin/streptomycin/amphotericin B. Secondary cultures were prepared by plating Dispase dissociated cells in collagen coated 24-well plates.
Sub-confluent secondary cultures were treated with the test compounds or ethanol vehicle every 2-3 days for 8 days in the above medium from which the total serum concentration was reduced to 2% and hydrocortisone was not included. During the last 6 hours of treatment, the cultures were labeled with 2 μCi/ml ^3H-thymidine. DNA from the cells were extracted by thichoroacetic acid and perchloric acid, and assayed for radioactivity by scintillation counting and for content of DNA by the diphenylamine calorimetric method. The results were expressed as CPM/μg DNA, or as per cent of vehicle control which incorporated about 1,000-1,500 cpm/μg DNA.

female hairless mice = assay type: in vivo; conditions: animals died from a group of 5
Experimental: Specifically, tests to determine skin toxicity were performed on certain examplary compounds in accordance with the present invention, and on certain analogous compounds which lack the R3 substituent in accordance with Formula 1, 2 or 3. A “Two Week Acute Skin Toxicity Study of Multiple Topical Applications in Female Hairless Mice” is conducted as follows: a daily dose (expressed in nanomoles) of the “test compound” is applied to the skin on the back of hairless mice (usually a test group of 5 mice for a given compound). The daily dose of the test compound is applied for 5 consecutive days, followed by two days when the test compound is not administered, and is thereafter administered again for 4 more consecutive days. On the 14th day the test animals if still alive, are sacrificed to perform certain studies and tests. In the meanwhile certain tests and observations are made on a daily basis with respect to body weight and skin condition. Skin condition is graded as “flaking/scaling” and “abrasion” on a scale of 0 to +5 where the various numbers correspond to the following observations.
Results of these tests are summarized in Table 3, where daily dose is expressed in nanomoles, weight loss of the test animals is in percentages at the end of the 14 day test period, or at the time the test animal expired, and mortality is expressed with the number of animals which died from a group of 5.

Which “litters that exhibited teratogenic effects” value (gestating ICR mice; 0.1 mg/kg) does the source give for C/C(=C\c1ccc(C(=O)O)cc1)c1ccc2c(c1)C(C)(C)CCC2(C)C [AGN 191183, reference compound] here?
The value was 100%.

And the “# Litters Normal” value (gestating ICR mice; 0.01 mg/kg)?
Its value is 2.

And the “Teratogenic Effects % Cleft Palate” value (gestating ICR mice; 0.01 mg/kg)?
The value was 29%.

What about the “Teratogenic Effects % Limb Defects” value (gestating ICR mice; 0.01 mg/kg) of the same molecule?
The value was 20%.

What about the “Teratogenic Effects % Resorbed” value (gestating ICR mice; 0.01 mg/kg) of the same molecule?
Its value is 3%.

What about the “# Litters Normal” value (gestating ICR mice; 0.1 mg/kg) of the same molecule?
The value was 0.

What about the “Teratogenic Effects % Cleft Palate” value (gestating ICR mice; 0.1 mg/kg) of the same molecule?
Its value is 100%.

What about the “Teratogenic Effects % Limb Defects” value (gestating ICR mice; 0.1 mg/kg) of the same molecule?
The value was 100%.

And the “Teratogenic Effects % Resorbed” value (gestating ICR mice; 0.1 mg/kg)?
Its value is 30%.

What about the “# Litters Normal” value (gestating ICR mice; 1 mg/kg) of the same molecule?
Its value is 0.

What about the “Teratogenic Effects % Resorbed” value (gestating ICR mice; 1 mg/kg) of the same molecule?
Its value is 100%.

What about the “# Litters Normal” value (gestating ICR mice; 10 mg/kg) of the same molecule?
The value was 0.

What about the “Teratogenic Effects % Resorbed” value (gestating ICR mice; 10 mg/kg) of the same molecule?
Its value is 100%.

And the IC50 [1]?
Its IC50 is 3 ng/mL (≈ 8.61 nM).

And the “inhibition of 3H-thymidine incorporation (effectiveness in sebocyte assay)” value (human sebocyte cultures)?
Its value is “not effective”.

What about the Death/Total (female hairless mice; daily dose 7.5 nanomoles topical) of the same molecule?
The Death/Total was 0/5.

And the Death/Total (female hairless mice; daily dose 25 nanomoles topical)?
The Death/Total was 0/5.

And the Death/Total (female hairless mice; daily dose 75 nanomoles topical)?
The Death/Total was 5/5.

What about the Death/Total (female hairless mice; daily dose 80 nanomoles topical) of the same molecule?
The Death/Total was 5/5.
